In general, IC50 refers to the concentration that inhibits the measured activity by half. By solubility is commonly meant how much of the substance goes into solution per volume. What is called half-life is the time in which the quantity being followed falls by half. Lower therefore signals fast loss. The CL/F is clearance divided by bioavailability, as obtained after extravascular dosing. Broadly, the bioavailability is the share of a dose that reaches the circulation, judged against a reference dose that is usually intravenous.

Converted amounts (≈) assume the structure as drawn.

We go through three molecules from ChEMBL document CHEMBL5344426, “Imidazolone as an Amide Bioisostere in the Development of β-1,3-N-Acetylglucosaminyltransferase 2 (B3GNT2) Inhibitors” (J Med Chem, 2023).

The nature of data set [1]: Microsomal stability in human liver microsome assessed as intrinsic clearance at 1 uM incubated for 20 mins in presence of NADPH by LC-MS/MS analysis. The data set is classed as ADME. The following applies: liver microsomes, read-out: CLH.
A short description of data set [2]: Permeability of compound across apical to basolateral in MDCK-II cells incubated for 2 hrs by LC-MS/MS analysis. The data set is classed as ADME, cell-based, Canis lupus familiaris. The settings on record: dog, read-out: permeability.
In data set [3] the target is T1, N-acetyllactosaminide beta-1,3-N-acetylglucosaminyltransferase 2 (Homo sapiens, UniProt Q9NY97).
T1 sequence (Q9NY97 whole entry): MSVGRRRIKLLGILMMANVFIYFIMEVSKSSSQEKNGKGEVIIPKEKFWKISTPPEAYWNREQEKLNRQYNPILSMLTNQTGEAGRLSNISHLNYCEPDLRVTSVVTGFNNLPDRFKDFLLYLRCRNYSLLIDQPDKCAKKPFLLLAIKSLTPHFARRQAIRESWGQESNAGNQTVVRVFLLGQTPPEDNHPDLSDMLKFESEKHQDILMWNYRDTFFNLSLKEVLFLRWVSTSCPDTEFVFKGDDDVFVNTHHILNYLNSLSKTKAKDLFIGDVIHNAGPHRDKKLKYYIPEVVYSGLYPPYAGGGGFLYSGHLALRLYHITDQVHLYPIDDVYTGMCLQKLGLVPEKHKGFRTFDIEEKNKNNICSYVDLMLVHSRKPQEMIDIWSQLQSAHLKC
Put plainly: Inhibition of B3GNT2 (unknown origin) using N-acetyl-lactosamine and UDP-GlcNAc as substrate incubated for 1.5 to 2 hrs by UDP-Glo based analysis. The settings on record: read-out: IC50.

Data set [4] can be described thus: Solubility of compound in PBS incubated for 48 to 72 hrs by LC-MS analysis. The data set is classed as physicochemical. The settings on record: time 48-72 hrs.
In data set [5] the target is N-acetyllactosaminide beta-1,3-N-acetylglucosaminyltransferase 4 (Homo sapiens, UniProt Q9C0J1). Put plainly: Inhibition of B3GNT4 (unknown origin) using Beta-lactose and UDP-GlcNAc as substrate incubated for 1.5 to 2 hrs by UDP-Glo based analysis.
The nature of data set [6]: Half life in mouse at 5 mg/kg, po. The data set is classed as ADME, organism-based. The settings on record: in vivo; for t1/2: po, 5 mg/kg.
A short description of data set [7]: Volume of distribution at steady state in mouse at 5 mg/kg, po. The class given is ADME, organism-based. The following applies: in vivo.
A further data set relates to Jurkat. Briefly: Antiproliferative activity against human Jurkat cells assessed as inhibition of cell growth incubated for 3 days by SYTOX blue staining based flow cytometry analysis. The settings on record: 72 h. The data set is classed as functional.
The nature of data set [8]: Clearance in mouse at 5 mg/kg, po. The class given is ADME, organism-based. The following applies: in vivo; for CL: po, 5 mg/kg.
Data set [9] in a line: Microsomal stability in mouse liver microsome assessed as intrinsic clearance at 1 uM incubated for 20 mins in presence of NADPH by LC-MS/MS analysis. The data set is classed as ADME. The following applies: liver microsomes, read-out: CLH.
Data set [10] can be described thus: Oral bioavailability in mouse at 5 mg/kg. The class given is ADME, organism-based. The settings on record: in vivo.
The nature of data set [11]: Solubility of compound in FeSSIF incubated for 48 to 72 hrs by LC-MS analysis. The data set is classed as physicochemical. The settings on record: time 48-72 hrs.
Data set [12] can be described thus: Microsomal stability in rat liver microsome assessed as intrinsic clearance at 1 uM incubated for 20 mins in presence of NADPH by LC-MS/MS analysis. The class given is ADME. The following applies: liver microsomes, read-out: CLH.
Data set [13] is described as follows: Solubility of compound in HCL incubated for 48 to 72 hrs by LC-MS analysis. The class given is physicochemical. The following applies: time 48-72 hrs.

N-acetyllactosaminide beta-1,3-N-acetylglucosaminyltransferase 4, sequence (Q9C0J1 whole entry): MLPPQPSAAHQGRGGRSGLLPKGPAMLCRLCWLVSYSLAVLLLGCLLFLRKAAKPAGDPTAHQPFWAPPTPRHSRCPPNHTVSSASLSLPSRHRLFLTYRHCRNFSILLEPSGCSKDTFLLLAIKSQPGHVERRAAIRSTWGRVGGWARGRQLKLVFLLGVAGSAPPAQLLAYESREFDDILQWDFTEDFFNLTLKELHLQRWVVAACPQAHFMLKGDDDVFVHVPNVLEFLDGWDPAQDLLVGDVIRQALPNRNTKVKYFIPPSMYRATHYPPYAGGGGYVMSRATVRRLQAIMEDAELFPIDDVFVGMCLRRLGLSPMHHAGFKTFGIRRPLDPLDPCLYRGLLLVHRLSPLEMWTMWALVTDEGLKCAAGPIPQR

In the case of `C[C@H](NC(=O)c1ccc2[nH]c(=O)n([C@H](C)C(C)(C)C)c2c1)c1cnc(C(F)(F)F)nc1`, the microsomal CLint at 1 µM in [1] was determined as 14 µL/min/mg; in data set [9] it was 61 µL/min/mg; in data set [12], 42 µL/min/mg. Further, the Papp A→B at 2 h in [2] is 21 ×10⁻⁶ cm/s. Besides, the IC50 in data set [3] was 70 nM; in data set [5] it was above 250000 nM; in the data set with Jurkat it was 17200 nM. Besides, the solubility amounted to 155 µM (≈ 67.5 µg/mL) in data set [4], 298 µM (≈ 130 µg/mL) in data set [11] and 180 µM (≈ 78.4 µg/mL) in data set [13]. This molecule showed a half-life in data set [6] of 1.9 h. Further, the Vdss in [7] worked out at 1.8 L/kg. Further, in [8], the apparent clearance (CL/F) is 13.3 mL/min/kg. Further, the bioavailability in data set [10] was found to be 28%.

Take `C[C@@H](n1c(=O)[nH]c2ccc(C3=NC(=O)[C@](C)(c4cnc(C(F)(F)F)nc4)N3)cc21)C(C)(C)C`: the microsomal CLint at 1 µM in data set [1] came out at 14 µL/min/mg; in data set [9], 15 µL/min/mg; in data set [12], 15 µL/min/mg. The Papp A→B at 2 h in [2] is 17 ×10⁻⁶ cm/s. The IC50 in [3] is 9 nM; in data set [5], above 250000 nM; in the data set with Jurkat, 1100 nM. The solubility in data set [4] came out at 154 µM (≈ 70.9 µg/mL); in data set [11], 485 µM (≈ 223 µg/mL); in [13], 329 µM (≈ 151 µg/mL). Also, the t1/2 in [6] was 1.4 h. The Vdss in data set [7] came out at 2.6 L/kg. The molecule further showed a CL in data set [8] of 5 mL/min/kg. This molecule came in with a bioavailability in data set [10] of 54%.

For the molecule `C[C@@H](n1c(=O)[nH]c2ccc(C3=NC(=O)[C@](C)(c4ccc(C(F)(F)F)nc4)N3)cc21)C(C)(C)C`, the microsomal CLint at 1 µM stood at 34 µL/min/mg in data set [1], 14 µL/min/mg in data set [9] and 14 µL/min/mg in [12]. Moreover, the Papp A→B at 2 h in data set [2] was 15 ×10⁻⁶ cm/s. For the same molecule, the figures for the concentration for half-maximal inhibition (IC50) (in data set [3]; in the data set on Jurkat) were 8 nM and 2300 nM, respectively. The solubility in data set [4] was determined as 66 µM (≈ 30.3 µg/mL); in data set [11], 500 µM (≈ 230 µg/mL); in data set [13] it was 311 µM (≈ 143 µg/mL). For the same molecule, the t1/2 in data set [6] amounted to 1.5 h. For the same molecule, the Vdss in data set [7] came to 3.4 L/kg. Further, the CL in [8] worked out at 5 mL/min/kg. The bioavailability in data set [10] was found to be 66%.
